This is an account of results in patent US20130225548A1, “Pyridine Derivative and Medicinal Agent” (NIPPON SHINYAKU CO., LTD., priority 2010, published 2013).

The structures appear in SMILES notation. Counter-ions that a name gives are not always drawn. Some results are limits rather than exact numbers.

The test deals with T1, Syk tyrosine kinase (Homo sapiens, UniProt P43405).
T1 construct: purchased Carna Biosciences, Inc
The test is described as follows: Test for Syk tyrosine kinase inhibitory activity (ELISA). The test is classed as biochemical. Conditions: Syk tyrosine kinase (Carna Biosciences), 25 μM ATP in substrate solution, 30° C. 1 hour, n=2; read-out: Evaluation (IC50, concentration inhibiting the tyrosine kinase activity at 50%). The method, boiled down: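 Syk kinase (0.025 nM stock before addition) with 625 nM biotinylated peptide and 25 μM ATP (substrate-solution levels) in Tris pH 7.5, MgCl2, DTT; 1 h at 30 °C on streptavidin plates. Phosphotyrosine detected by HRP anti-pTyr antibody, TMB, A450; IC50 by non-linear regression.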
Background: In an ELISA, binding on a coated surface is turned into a signal by an enzyme label.

On to `N#Cc1ccnc(Nc2cc(C3CC3)cc(-c3ccc(N4CCN(C(N)=O)CC4=O)nc3)n2)c1` [Example 67, 4-{6-[(4-cyanopyridin-2-yl)amino]-4-cyclopropyl-2,3′-bipyridin-6′-yl}-3-oxopiperazine-1-carboxamide hydrochloride], for which the IC50 lay within 50 to 500 nM.

Regarding `N#Cc1ccnc(Nc2cc(C3CC3)cc(-c3cncc(N4CCS(=O)(=O)CC4)c3)n2)c1` [Example 68, 2-{[4-cyclopropyl-5′-(1,1-dioxidethiomorpholin-4-yl)-2,3′-bipyridin-6-yl]amino}pyridine-4-carbonitrile hydrochloride], the IC50 lay within 50 to 500 nM. `N#Cc1ccnc(Nc2cc(C3CC3)cc(-c3cncc(N4CCCN(C(N)=O)CC4)c3)n2)c1` [Example 69, 4-{6-[(4-cyanopyridin-2-yl)amino]-4-cyclopropyl-2,3′-bipyridin-5′-yl}-1,4-diazepane-1-carboxamide hydrochloride]: the IC50 is 5 to 50 nM.

With `N#Cc1ccnc(Nc2cc(C3CC3)cc(-c3ccc(CN4CCNC(=O)C4)nc3)n2)c1` [Example 70, 2-({4-cyclopropyl-6′-[(3-oxopiperazin-1-yl)methyl]-2,3′-bipyridin-6-yl}amino)pyridine-4-carbonitrile hydrochloride], the IC50 is 50 to 500 nM. Next, `N#Cc1ccnc(Nc2cc(C3CC3)cc(-c3ccc(CO)nc3)n2)c1` [Example 71, 2-{[4-cyclopropyl-6′-(hydroxymethyl)-2,3′-bipyridin-6-yl]amino}pyridine-4-carbonitrile hydrochloride]: 50 to 500 nM; `N#Cc1ccnc(Nc2cc(C3CC3)cc(-c3ccc(CN4CCS(=O)(=O)CC4)nc3)n2)c1` [Example 72, 2-({4-cyclopropyl-6′-[(1,1-dioxidethiomorpholin-4-yl)methyl]-2,3′-bipyridin-6-yl}amino)pyridine-4-carbonitrile hydrochloride]: 5 to 50 nM; `N#Cc1ccnc(Nc2cc(C3CC3)cc(-c3cncc(CN4CCNC(=O)C4)c3)n2)c1` [Example 73, 2-({4-cyclopropyl-5′-[(3-oxopiperazin-1-yl)methyl]-2,3′-bipyridin-6-yl}amino)pyridine-4-carbonitrile hydrochloride]: 5 to 50 nM. As for `N#Cc1ccnc(Nc2cc(C3CC3)cc(-c3cncc(CN4CCS(=O)(=O)CC4)c3)n2)c1` [Example 74, 2-({4-cyclopropyl-5′-[(1,1-dioxidethiomorpholin-4-yl)methyl]-2,3′-bipyridin-6-yl}amino)pyridine-4-carbonitrile hydrochloride], the IC50 is 5 to 50 nM. Next, `N#Cc1ccnc(Nc2cc(C3CC3)cc(-c3cncc(CN4CCCN(C(N)=O)CC4)c3)n2)c1` [Example 75, 4-({6-[(4-cyanopyridin-2-yl)amino]-4-cyclopropyl-2,3′-bipyridin-5′yl}methyl)-1,4-diazepane-1-carboxamide hydrochloride]: 5 to 50 nM; `N#Cc1ccnc(Nc2cc(C3CC3)cc(-c3ccnc(N4CCCN(C(N)=O)CC4)c3)n2)c1` [Example 76, 4-{6-[(4-cyanopyridin-2-yl)amino]-4-cyclopropyl-2,4′-bipyridin-2′-yl}-1,4-diazepane-1-carboxamide hydrochloride]: 5 to 50 nM; `N#Cc1ccnc(Nc2cc(C3CC3)cc(-c3cncc(NC4CCN(C(N)=O)CC4)c3)n2)c1` [Example 77, 4-({6-[(4-cyanopyridin-2-yl)amino]-4-cyclopropyl-2,3′-bipyridin-5′-yl}amino)piperidine-1-carboxamide hydrochloride]: 5 to 50 nM.

For the compound `N#Cc1ccnc(Nc2cc(C3CC3)cc(-c3cccc(N4CCCN(C(N)=O)CC4)c3)n2)c1` [Example 78, 4-(3-{6-[(4-cyanopyridin-2-yl)amino]-4-cyclopropylpyridin-2-yl}phenyl)-1,4-diazepane-1-carboxamide hydrochloride], the IC50 was in the range of 5 to 50 nM. Next, `N#Cc1ccnc(Nc2cc(C3CC3)cc(-c3cccc(CN4CCNC(=O)C4)c3)n2)c1` [Example 79, 2-[(4-cyclopropyl-6-{3-[(3-oxopiperazin-1-yl)methyl]phenyl}pyridin-2-yl)amino]pyridine-4-carbonitrile hydrochloride]: 5 to 50 nM; `N#Cc1ccnc(Nc2cc(C3CC3)cc(-c3ccc(CN4CCNC(=O)C4)cc3)n2)c1` [Example 80, 2-[(4-cyclopropyl-6-{4-[(3-oxopiperazin-1-yl)methyl]phenyl}pyridin-2-yl)amino]pyridine-4-carbonitrile hydrochloride]: 50 to 500 nM. The figure for `N#Cc1ccnc(Nc2cc(C3CC3)cc(-c3cncc(CN4CCNCC4)c3)n2)c1` [Example 81, 2-{[4-cyclopropyl-5′-(piperazin-1-ylmethyl)-2,3′-bipyridin-6-yl]amino}pyridine-4-carbonitrile hydrochloride] is 5 to 50 nM; for `CC(=O)N1CCN(Cc2cncc(-c3cc(C4CC4)cc(Nc4cc(C#N)ccn4)n3)c2)CC1` [Example 82, 2-({5′-[(4-acetylpiperazin-1-yl)methyl]-4-cyclopropyl-2,3′-bipyridin-6-yl}amino)pyridine-4-carbonitrile hydrochloride] it is 50 to 500 nM; for `N#Cc1ccnc(Nc2cc(C3CC3)cc(-c3cncc(CN4CCN(C(N)=O)CC4)c3)n2)c1` [Example 83, 4-({6-[(4-cyanopyridin-2-yl)amino]-4-cyclopropyl-2,3′-bipyridin-5′-yl}methyl)piperazine-1-carboxamide hydrochloride] it is 5 to 50 nM. Regarding `N#Cc1ccnc(Nc2cc(C3CC3)cc(-c3cccc(CN4CCNCC4)c3)n2)c1` [Example 84, 2-({4-cyclopropyl-6-[3-(piperazin-1-ylmethyl)phenyl]pyridin-2-yl}amino)pyridine-4-carbonitrile hydrochloride], the IC50 is under 5 nM. Next, `N#Cc1ccnc(Nc2cc(C3CC3)cc(-c3cncc(NC4CCNCC4)c3)n2)c1` [Example 85, 2-{[4-cyclopropyl-5′-(piperidin-4-ylamino)-2,3′-bipyridin-6-yl]amino}pyridine-4-carbonitrile hydrochloride]: under 5 nM; `N#Cc1ccnc(Nc2cc(C3CC3)cc(-c3ccnc(CN4CCNCC4)c3)n2)c1` [Example 86, 2-{[4-cyclopropyl-2′-(piperazin-1-ylmethyl)-2,4′-bipyridin-6-yl]amino}pyridine-4-carbonitrile hydrochloride]: 5 to 50 nM. Next, `N#Cc1ccnc(Nc2cc(C3CC3)cc(-c3ccnc(CN4CCNC(=O)C4)c3)n2)c1` [Example 87, 2-({4-cyclopropyl-2′-[(3-oxopiperazin-1-yl)methyl]-2,4′-bipyridin-6-yl}amino)pyridine-4-carbonitrile hydrochloride]: 5 to 50 nM; `N#Cc1ccnc(Nc2cc(C3CC3)cc(-c3cncc(N[C@@H]4CCNC4)c3)n2)c1` [Example 88, 2-({4-cyclopropyl-5′-[(3R)-pyrrolidin-3-ylamino]-2,3′-bipyridin-6-yl}amino)pyridine-4-carbonitrile hydrochloride]: under 5 nM.

On to `N#Cc1ccnc(Nc2cc(C3CC3)cc(-c3cncc(N[C@H]4CCNC4)c3)n2)c1` [Example 89, 2-{(4-cyclopropyl-5′-[(3S)-pyrrolidin-3-ylamino]-2,3′-bipyridin-6-yl}amino)pyridine-4-carbonitrile hydrochloride], for which the IC50 is under 5 nM. As to `N#Cc1ccnc(Nc2cc(C3CC3)cc(-c3cncc(NCCN)c3)n2)c1` [Example 90, 2-({5′-[(2-aminoethyl)amino]-4-cyclopropyl-2,3′-bipyridin-6-yl}amino)pyridine-4-carbonitrile hydrochloride], the IC50 was under 5 nM. Turning to `N#Cc1ccnc(Nc2cc(C3CC3)cc(-c3cncc(COC4CCNCC4)c3)n2)c1` [Example 91, 2-({4-cyclopropyl-5′-[(piperidin-4-yloxy)methyl]-2,3′-bipyridin-6-yl}amino)pyridine-4-carbonitrile hydrochloride], the IC50 is under 5 nM. For `CN(Cc1cncc(-c2cc(C3CC3)cc(Nc3cc(C#N)ccn3)n2)c1)C1CCNCC1` [Example 92, 2-[(4-cyclopropyl-5′-{[N-methyl-N-(piperidin-4-yl)amino]methyl}-2,3′-bipyridin-6-yl)amino]pyridine-4-carbonitrile hydrochloride], the IC50 was under 5 nM. The figure for `N#Cc1ccnc(Nc2cc(C3CC3)cc(-c3cncc(CNC4CCNCC4)c3)n2)c1` [Example 93, 2-({4-cyclopropyl-5′-[(piperidin-4-ylamino)methyl]-2,3′-bipyridine-6-yl}amino)pyridine-4-carbonitrile hydrochloride] is 5 to 50 nM. Regarding `N#Cc1ccnc(Nc2cc(C3CC3)cc(-c3cncc(NCC4CCNCC4)c3)n2)c1` [Example 94, 2-({4-cyclopropyl-5′-[(piperidin-4-ylmethyl)amino]-2,3′-bipyridin-6-yl}amino)pyridine-4-carbonitrile hydrochloride], the IC50 lay within 5 to 50 nM. The figure for `N#Cc1ccnc(Nc2cc(C3CC3)cc(-c3cncc(NC4CNC4)c3)n2)c1` [Example 95, 2-{[5′-(azetidin-3-ylamino)-4-cyclopropyl-2,3′-bipyridin-6-yl]amino}pyridine-4-carbonitrile hydrochloride] is under 5 nM; for `N#Cc1ccnc(Nc2cc(C3CC3)cc(-c3cncc(OC4CCNCC4)c3)n2)c1` [Example 96, 2-([4-cyclopropyl-5′-(piperidin-4-yloxy)-2,3′-bipyridin-6-yl]amino)pyridine-4-carbonitrile hydrochloride] it is under 5 nM. Take `N#Cc1ccnc(Nc2cc(C3CC3)cc(-c3cncc(NC[C@H]4CCNC4)c3)n2)c1` [Example 97, 2-[(4-cyclopropyl-5′-{[(3S)-pyrrolidin-3-ylmethyl]amino}-2,3′-bipyridin-6-yl)amino]pyridine-4-carbonitrile hydrochloride]: the IC50 was under 5 nM.
